Experimental findings from patent US10245261B2, “Substituted indol-5-ol derivatives and their therapeutic applications” (NantBioScience, Inc., priority 2013, dated 2019) are described below.

A word on the GI50: it is the concentration that inhibits growth by half. In general, inhibition refers to the change of the read-out against control, counted positive when it falls.

Read-outs that look alike come from different tables or passages of the source. Where only a bound is given, the exact number is not on record here.

Experiment [1] has as its system NCI 60 cancer cell line panel. The experiment in a line: NCI-60 DTP Human Tumor Cell Line Panel, SRB growth inhibition. In kind it is cell-based. Particulars: for GI50: Homo sapiens. The method, then: The human tumor cell lines of the cancer screening panel are grown in RPMI 1640 medium containing 5% fetal bovine serum and 2 mM L-glutamine. For a typical screening experiment, cells are inoculated into 96 well microtiter plates in 100 μL at plating densities ranging from 5,000 to 40,000 cells/well depending on the doubling time of individual cell lines. After cell inoculation, the microtiter plates are incubated at 37° C., 5% CO2, 95% air and 100% relative humidity for 24 h prior to addition of experimental drugs.
After 24 h, two plates of each cell line are fixed in situ with TCA, to represent a measurement of the cell population for each cell line at the time of drug addition (Tz). Experimental drugs are solubilized in dimethyl sulfoxide at 400-fold the desired final maximum test concentration and stored frozen prior to use. At the time of drug addition, an aliquot of frozen concentrate is thawed and diluted to twice the desired final maximum test concentration with complete medium containing 50 μg/ml gentamicin. Additional four, 10-fold or ½ log serial dilutions are made to provide a total of five drug concentrations plus control. Aliquots of 100 μl of these different drug dilutions are added to the appropriate microtiter wells already containing 100 μl of medium, resulting in the required final drug concentrations.
Following drug addition, the plates are incubated for an additional 48 h at 37° C., 5% CO2, 95% air, and 100% relative humidity. For adherent cells, the assay is terminated by the addition of cold TCA. Cells are fixed in situ by the gentle addition of 50 μl of cold 50% (w/v) TCA (final concentration, 10% TCA) and incubated for 60 minutes at 4° C. The supernatant is discarded, and the plates are washed five times with tap water and air dried. Sulforhodamine B (SRB) solution (100 μl) at 0.4% (w/v) in 1% acetic acid is added to each well, and plates are incubated for 10 minutes at room temperature. After staining, unbound dye is removed by washing five times with 1% acetic acid and the plates are air dried. Bound stain is subsequently solubilized with 10 mM trizma base, and the absorbance is read on an automated plate reader at a wavelength of 515 nm. For suspension cells, the methodology is the same except that the assay is terminated by fixing settled cells at the bottom of the wells by gently adding 50 μl of 80% TCA (final concentration, 16% TCA). Using the seven absorbance measurements [time zero, (Tz), control growth, (C), and test growth in the presence of drug at the five concentration levels (Ti)], the percentage growth is calculated at each of the drug concentrations levels. Percentage growth inhibition is calculated as: [(Ti−Tz)/(C−Tz)]×100 for concentrations for which Ti>/=Tz [(Ti−Tz)/Tz]×100 for concentrations for which Ti<Tz.
Three dose response parameters are calculated for each experimental agent.

The target in a further experiment is CHK2(R145W)(h) (Homo sapiens, UniProt O96017, R145W). Description: KinaseProfiler kinase assay. In kind it is biochemical.
Sequence of CHK2(R145W)(h) (O96017 whole entry R145W): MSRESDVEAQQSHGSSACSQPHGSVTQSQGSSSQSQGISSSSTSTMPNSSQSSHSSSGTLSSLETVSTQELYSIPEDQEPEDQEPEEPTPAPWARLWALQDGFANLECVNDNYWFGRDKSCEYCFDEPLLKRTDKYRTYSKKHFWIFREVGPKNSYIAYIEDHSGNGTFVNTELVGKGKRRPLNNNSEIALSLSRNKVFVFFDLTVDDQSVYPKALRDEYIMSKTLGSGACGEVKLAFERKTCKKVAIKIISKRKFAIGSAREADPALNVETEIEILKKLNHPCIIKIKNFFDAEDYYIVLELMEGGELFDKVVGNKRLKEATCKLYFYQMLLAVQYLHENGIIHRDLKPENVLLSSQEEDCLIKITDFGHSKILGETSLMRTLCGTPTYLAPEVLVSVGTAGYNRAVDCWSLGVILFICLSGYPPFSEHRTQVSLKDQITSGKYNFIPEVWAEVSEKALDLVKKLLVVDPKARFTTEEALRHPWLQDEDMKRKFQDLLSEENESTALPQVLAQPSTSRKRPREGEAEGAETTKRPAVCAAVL
For the next experiment, the target named is Syk(h) (Homo sapiens, UniProt P43405). The experiment in a line: KinaseProfiler kinase assay. In kind it is biochemical. A digest of the protocol:
(§1)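 Steps: compound diluted from DMSO into MOPS/BSA assay buffer; MgATP mix with [γ-33P]ATP added to start; 40 min incubation at room temperature; phosphoric acid stop; filtermat spotting, washing in 50 mM phosphoric acid and methanol; scintillation counting.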

For another experiment, the target named is CDK9/cyclin T1(h) (Homo sapiens, UniProt P50750). The experiment in a line: KinaseProfiler kinase assay. In kind it is biochemical. A digest of the protocol: as §1
Sequence of CDK9/cyclin T1(h) (P50750 whole entry): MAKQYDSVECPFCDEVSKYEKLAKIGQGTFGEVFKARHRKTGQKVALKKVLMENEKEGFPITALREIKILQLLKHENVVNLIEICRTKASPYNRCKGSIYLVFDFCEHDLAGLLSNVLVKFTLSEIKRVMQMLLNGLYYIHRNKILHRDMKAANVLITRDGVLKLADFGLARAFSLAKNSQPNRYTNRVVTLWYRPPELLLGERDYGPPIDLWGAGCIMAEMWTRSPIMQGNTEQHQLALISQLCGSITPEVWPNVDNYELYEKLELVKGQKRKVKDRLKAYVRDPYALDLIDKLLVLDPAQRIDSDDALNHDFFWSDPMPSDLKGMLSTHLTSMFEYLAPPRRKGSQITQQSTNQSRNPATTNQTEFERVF
Sequence of CDK9/cyclin T1(h) (O60563 whole entry partner): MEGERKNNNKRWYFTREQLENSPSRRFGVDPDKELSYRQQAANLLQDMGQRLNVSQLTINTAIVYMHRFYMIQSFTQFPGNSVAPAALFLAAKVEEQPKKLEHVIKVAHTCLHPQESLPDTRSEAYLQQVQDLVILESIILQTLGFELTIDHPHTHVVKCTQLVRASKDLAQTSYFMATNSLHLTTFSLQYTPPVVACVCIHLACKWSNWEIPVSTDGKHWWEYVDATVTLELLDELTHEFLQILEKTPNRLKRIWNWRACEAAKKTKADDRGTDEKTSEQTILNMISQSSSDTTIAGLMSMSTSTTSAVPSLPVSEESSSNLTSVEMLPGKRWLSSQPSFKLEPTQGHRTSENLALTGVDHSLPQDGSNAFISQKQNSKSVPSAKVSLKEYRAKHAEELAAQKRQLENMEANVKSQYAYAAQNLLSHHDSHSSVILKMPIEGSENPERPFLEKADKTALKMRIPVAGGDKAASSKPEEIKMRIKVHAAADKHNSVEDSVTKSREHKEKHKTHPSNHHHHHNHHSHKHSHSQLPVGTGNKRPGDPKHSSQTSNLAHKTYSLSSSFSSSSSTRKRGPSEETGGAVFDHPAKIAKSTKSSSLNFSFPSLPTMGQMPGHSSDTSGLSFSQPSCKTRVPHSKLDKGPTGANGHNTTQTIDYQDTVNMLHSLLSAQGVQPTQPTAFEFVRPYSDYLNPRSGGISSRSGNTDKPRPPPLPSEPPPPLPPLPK
For another experiment, the target named is CK1γ2(h) (Homo sapiens, UniProt P78368). The experiment in a line: KinaseProfiler kinase assay. In kind it is biochemical. In outline:
as §1

In a further experiment the target is PKBβ(h) (Homo sapiens, UniProt P31751). Description: KinaseProfiler kinase assay. Type of experiment: biochemical. In outline: as §1
Sequence of PKBβ(h) (P31751 whole entry): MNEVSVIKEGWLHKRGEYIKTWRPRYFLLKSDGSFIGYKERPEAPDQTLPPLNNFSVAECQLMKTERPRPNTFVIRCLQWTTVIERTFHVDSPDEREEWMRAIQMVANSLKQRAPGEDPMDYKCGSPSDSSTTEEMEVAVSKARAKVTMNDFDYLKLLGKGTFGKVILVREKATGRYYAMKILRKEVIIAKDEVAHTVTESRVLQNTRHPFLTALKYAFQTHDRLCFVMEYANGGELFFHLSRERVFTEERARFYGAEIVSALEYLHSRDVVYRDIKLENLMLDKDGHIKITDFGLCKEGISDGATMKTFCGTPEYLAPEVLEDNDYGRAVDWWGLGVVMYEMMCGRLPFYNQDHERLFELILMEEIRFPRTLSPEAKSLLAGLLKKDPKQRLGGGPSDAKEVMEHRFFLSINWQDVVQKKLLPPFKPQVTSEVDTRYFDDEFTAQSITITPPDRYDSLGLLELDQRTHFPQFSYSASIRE
The target of another experiment is Met(M1268T)(h) (Homo sapiens, UniProt P08581, M1250T). The experiment in a line: KinaseProfiler kinase assay. Type of experiment: biochemical. In outline:
as §1

A further experiment concerns the target TBK1(h) (Homo sapiens, UniProt Q9UHD2). Description: KinaseProfiler kinase assay. In kind it is biochemical. A digest of the protocol: as §1
The target of a further experiment is Met(Y1248H)(h) (Homo sapiens, UniProt P08581, Y1230H). The experiment in a line: KinaseProfiler kinase assay. In kind it is biochemical. A digest of the protocol: as §1
Another experiment concerns the target cKit(D816H)(h) (Homo sapiens, UniProt P10721, D816H). The experiment in a line: KinaseProfiler kinase assay. In kind it is biochemical. In outline: as §1

Sequence of cKit(D816H)(h) (P10721 26-976 D816H): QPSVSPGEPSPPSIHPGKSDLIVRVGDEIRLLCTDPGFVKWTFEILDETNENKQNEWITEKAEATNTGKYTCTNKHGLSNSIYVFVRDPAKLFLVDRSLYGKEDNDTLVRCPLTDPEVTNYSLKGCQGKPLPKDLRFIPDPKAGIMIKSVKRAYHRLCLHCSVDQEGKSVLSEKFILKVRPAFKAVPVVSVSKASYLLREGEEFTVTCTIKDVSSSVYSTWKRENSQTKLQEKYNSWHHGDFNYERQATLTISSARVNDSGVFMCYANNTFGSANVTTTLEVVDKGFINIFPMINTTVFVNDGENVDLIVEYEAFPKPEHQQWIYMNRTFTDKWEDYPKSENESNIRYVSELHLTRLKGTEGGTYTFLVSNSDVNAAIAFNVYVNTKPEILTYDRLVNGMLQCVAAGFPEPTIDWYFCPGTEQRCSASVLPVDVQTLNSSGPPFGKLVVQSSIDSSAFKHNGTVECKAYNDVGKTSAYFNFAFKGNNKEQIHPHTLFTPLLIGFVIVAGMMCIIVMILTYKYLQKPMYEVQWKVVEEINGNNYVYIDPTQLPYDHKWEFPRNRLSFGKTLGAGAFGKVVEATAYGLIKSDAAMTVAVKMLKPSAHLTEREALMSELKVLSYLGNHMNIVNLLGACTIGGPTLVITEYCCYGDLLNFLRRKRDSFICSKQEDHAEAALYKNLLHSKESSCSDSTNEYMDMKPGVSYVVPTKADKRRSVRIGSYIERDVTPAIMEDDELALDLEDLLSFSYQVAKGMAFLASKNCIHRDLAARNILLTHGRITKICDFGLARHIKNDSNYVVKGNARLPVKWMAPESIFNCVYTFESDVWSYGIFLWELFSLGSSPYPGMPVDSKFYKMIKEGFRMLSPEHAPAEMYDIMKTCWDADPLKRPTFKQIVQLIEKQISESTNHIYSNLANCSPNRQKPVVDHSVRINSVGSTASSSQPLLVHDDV
Sequence of CK1γ2(h) (P78368 whole entry): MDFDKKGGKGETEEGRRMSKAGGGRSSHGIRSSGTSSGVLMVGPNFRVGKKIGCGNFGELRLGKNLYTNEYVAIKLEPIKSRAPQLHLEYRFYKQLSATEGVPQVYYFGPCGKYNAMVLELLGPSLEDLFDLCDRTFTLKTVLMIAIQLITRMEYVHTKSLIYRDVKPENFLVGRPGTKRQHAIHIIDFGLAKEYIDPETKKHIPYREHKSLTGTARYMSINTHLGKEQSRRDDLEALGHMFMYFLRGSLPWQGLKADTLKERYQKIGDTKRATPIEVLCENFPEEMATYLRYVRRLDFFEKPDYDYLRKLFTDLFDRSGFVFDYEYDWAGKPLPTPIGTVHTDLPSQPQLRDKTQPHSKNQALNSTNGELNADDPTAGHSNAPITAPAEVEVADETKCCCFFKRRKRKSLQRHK
Sequence of TBK1(h) (Q9UHD2 whole entry): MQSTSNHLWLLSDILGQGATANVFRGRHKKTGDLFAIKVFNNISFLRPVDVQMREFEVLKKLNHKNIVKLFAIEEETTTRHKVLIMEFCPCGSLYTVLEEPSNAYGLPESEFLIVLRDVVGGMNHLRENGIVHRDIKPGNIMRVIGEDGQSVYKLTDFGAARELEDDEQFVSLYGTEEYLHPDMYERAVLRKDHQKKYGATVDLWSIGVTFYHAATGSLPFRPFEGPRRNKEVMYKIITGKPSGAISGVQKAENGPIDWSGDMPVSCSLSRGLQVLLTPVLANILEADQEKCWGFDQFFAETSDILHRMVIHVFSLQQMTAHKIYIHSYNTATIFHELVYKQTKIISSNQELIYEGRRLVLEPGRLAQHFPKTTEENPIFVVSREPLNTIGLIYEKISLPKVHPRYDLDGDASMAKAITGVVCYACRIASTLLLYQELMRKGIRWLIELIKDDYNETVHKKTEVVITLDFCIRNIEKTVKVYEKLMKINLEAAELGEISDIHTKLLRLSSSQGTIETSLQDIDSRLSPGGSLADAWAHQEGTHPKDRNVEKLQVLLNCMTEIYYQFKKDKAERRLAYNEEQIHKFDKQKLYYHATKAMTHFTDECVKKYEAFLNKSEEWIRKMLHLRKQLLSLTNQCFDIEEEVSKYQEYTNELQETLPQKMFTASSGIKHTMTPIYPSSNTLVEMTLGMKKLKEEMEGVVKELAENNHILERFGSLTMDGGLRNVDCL

Turning to `C/C=C/c1cc(Nc2cc(N3CCN(C)CC3)nc(Oc3ccc4[nH]c(C)cc4c3F)n2)n[nH]1` [Compound 53], the GI50 was 10 to 1890 nM in experiment [1] (60 cell, range over the NCI 60 cell lines (Table 6), read-out: growth inhibition (GI50)); 97.2 nM in [1] (786-0, Renal Cancer, 786-0, read-out: GI50); less than 10 nM in experiment [1] (A498, Renal Cancer, A498, read-out: GI50); 388 nM in [1] (A549, Non-Small Cell Lung Cancer, A549/ATCC, read-out: GI50); 190 nM in experiment [1] (ACHN, Renal Cancer, ACHN, read-out: GI50); 268 nM in [1] (BT-549, Breast Cancer, BT-549, read-out: GI50). Besides, the GI50 in experiment [1] (CAKI-1, Renal Cancer, CAKI-1, read-out: GI50) is 901 nM; in [1] (CCRF-CEM, Leukemia, CCRF-CEM, read-out: GI50) it was less than 10 nM; in experiment [1] (COLO 205, Colon Cancer, COLO 205, read-out: GI50), 85.9 nM; in experiment [1] (DU-145, Prostate Cancer, DU-145, read-out: GI50) it was 288 nM; in experiment [1] (HCC 2998, Colon Cancer, HCC-2998, read-out: GI50), 1420 nM; in experiment [1] (HCT-15, Colon Cancer, HCT-15, read-out: GI50) it was 397 nM. The GI50 in experiment [1] (HCT-116, Colon Cancer, HCT-116, read-out: GI50) is 40.1 nM; in experiment [1] (HL-60, Leukemia, HL-60(TB), read-out: GI50), 1430 nM; in experiment [1] (HOP-62, Non-Small Cell Lung Cancer, HOP-62, read-out: GI50), 91.4 nM; in [1] (HOP-92, Non-Small Cell Lung Cancer, HOP-92, read-out: GI50), 22.4 nM; in [1] (HT-29, Colon Cancer, HT29, read-out: GI50), 96.3 nM; in experiment [1] (Hs-578T, Breast Cancer, HS 578T, read-out: GI50) it was 13 nM. Also, the GI50 in [1] (IGROV-1, Ovarian Cancer, IGROV1, read-out: GI50) was 47.2 nM; in [1] (K562, Leukemia, K-562, read-out: GI50), less than 10 nM; in [1] (KM12, Colon Cancer, KM12, read-out: GI50), less than 10 nM; in [1] (LOX IMVI, Melanoma, LOX IMVI, read-out: GI50), 34.3 nM; in experiment [1] (MCF7, Breast Cancer, MCF7, read-out: GI50), less than 10 nM; in experiment [1] (MDA-MB-231, Breast Cancer, MDA-MB-231/ATCC, read-out: GI50) it was 227 nM. For the same compound, the GI50 was determined as 354 nM in [1] (MDA-MB-435, Melanoma, MDA-MB-435, read-out: GI50); 39.2 nM in experiment [1] (MDA-MB-468, Breast Cancer, MDA-MB-468, read-out: GI50); 48.1 nM in [1] (MOLT-4, Leukemia, MOLT-4, read-out: GI50); 132 nM in experiment [1] (Malme-3M, Melanoma, MALME-3M, read-out: GI50); 166 nM in experiment [1] (Melanoma, M14, read-out: GI50); 153 nM in experiment [1] (NCI-H23, Non-Small Cell Lung Cancer, NCI-H23, read-out: GI50). Moreover, the GI50 in experiment [1] (NCI-H226, Non-Small Cell Lung Cancer, NCI-H226, read-out: GI50) was less than 10 nM; in [1] (NCI-H322M, Non-Small Cell Lung Cancer, NCI-H322M, read-out: GI50), 915 nM; in experiment [1] (NCI-H460, Non-Small Cell Lung Cancer, NCI-H460, read-out: GI50), 86.9 nM; in experiment [1] (NCI-H522, Non-Small Cell Lung Cancer, NCI-H522, read-out: GI50) it was 72.2 nM; in [1] (NCI/ADR-RES, Ovarian Cancer, NCI/ADR-RES, read-out: GI50), 1540 nM; in experiment [1] (OVCAR-3, Ovarian Cancer, OVCAR-3, read-out: GI50), 1070 nM. Also, the GI50 in [1] (OVCAR-4, Ovarian Cancer, OVCAR-4, read-out: GI50) was 1550 nM; in experiment [1] (OVCAR-5, Ovarian Cancer, OVCAR-5, read-out: GI50) it was 171 nM; in experiment [1] (OVCAR-8, Ovarian Cancer, OVCAR-8, read-out: GI50) it was 187 nM; in experiment [1] (Prostate Cancer, PC-3, read-out: GI50), 1270 nM; in experiment [1] (RPMI-8226, Leukemia, RPMI-8226, read-out: GI50), 1890 nM; in experiment [1] (RXF 393, Renal Cancer, RXF 393, read-out: GI50), 18.4 nM. Moreover, the GI50 in [1] (SF530, CNS Cancer, SF-530, read-out: GI50) amounted to 65.8 nM; in [1] (SF-268, CNS Cancer, SF-268, read-out: GI50), 87.7 nM; in [1] (SF-295, CNS Cancer, SF-295, read-out: GI50), 91 nM; in [1] (SK-MEL-2, Melanoma, SK-MEL-2, read-out: GI50), 1420 nM; in [1] (SK-MEL-5, Melanoma, SK-MEL-5, read-out: GI50), 1270 nM; in experiment [1] (SK-MEL-28, Melanoma, SK-MEL-28, read-out: GI50) it was 342 nM. Also, the GI50 is 421 nM in experiment [1] (SK-OV-3, Ovarian Cancer, SK-OV-3, read-out: GI50); 48.7 nM in [1] (SN12C, Renal Cancer, SN12C, read-out: GI50); 205 nM in experiment [1] (SNB-19, CNS Cancer, SNB-19, read-out: GI50); 15.8 nM in experiment [1] (SNB-75, CNS Cancer, SNB-75, read-out: GI50); 44.1 nM in experiment [1] (SW-620, Colon Cancer, SW-620, read-out: GI50); 1030 nM in experiment [1] (T47D, Breast Cancer, T-47D, read-out: GI50). The GI50 in experiment [1] (U-251, CNS Cancer, U251, read-out: GI50) is 103 nM; in experiment [1] (UACC-62, Melanoma, UACC-62, read-out: GI50), 502 nM; in experiment [1] (UACC-257, Melanoma, UACC-257, read-out: GI50) it was 388 nM; in [1] (UO-31, Renal Cancer, UO-31, read-out: GI50), 81 nM.
For `C/C=C/c1cc(Nc2cc(N3CCN(C)CC3)nc(Oc3cc(F)c4[nH]c(C)cc4c3F)n2)n[nH]1` [NTW-3456], in experiment [1] (cell lines from the NCI 60 panel), the antiproliferative activity result is “Anti-proliferative activity”.
As to `Cc1cc2c(F)c(Oc3nc(Nc4cc(C5CC5)[nH]n4)cc(N4CCN(C)CC4)n3)ccc2[nH]1` [Compound 10], the inhibition at 0.1 µM on CHK2(R145W)(h) is 22%; at Syk(h), 25%; at CDK9/cyclin T1(h), 22%; on CK1γ2(h), -20%; on PKBβ(h), -35%; against Met(M1268T)(h), 91%. Moreover, the inhibition at 0.1 µM against TBK1(h) stood at 71%; on Met(Y1248H)(h), 69%; at cKit(D816H)(h) it was 86%.
Regarding `Cc1cc2c(F)c(Oc3nc(Nc4cc(C5CC5)[nH]n4)cc(N4CCNCC4)n3)ccc2[nH]1` [Compound 11, N-(5-cyclopropyl-1H-pyrazol-3-yl)-2-((4-fluoro-2-methyl-1H-indol-5-yl)oxy)-6-(piperazin-1-yl)pyrimidin-4-amine], the inhibition at 0.1 µM against CHK2(R145W)(h) was 6%; against Syk(h) it was 36%; on CDK9/cyclin T1(h) it was 32%; on CK1γ2(h), -16%; against PKBβ(h), -9%; on Met(M1268T)(h), 72%. The inhibition at 0.1 µM against TBK1(h) stood at 95%; against Met(Y1248H)(h) it was 91%; on cKit(D816H)(h) it was 91%.
